From ChEMBL document CHEMBL4402510, “Caprazamycins: Promising lead structures acting on a novel antibacterial target MraY” (Eur J Med Chem, 2019) come the findings set out here.

Values after ≈ are worked out from the molar mass of the structure shown.

The term IC50 denotes the concentration at which inhibition is half-maximal.

Assay [1] relates to Mycobacterium tuberculosis. Put plainly: Antibacterial activity against Mycobacterium tuberculosis. The class given is functional.
In a further assay the test system is Mycobacterium avium. Put plainly: Antibacterial activity against Mycobacterium avium. The class given is functional.
Assay [2] concerns Mycolicibacterium smegmatis. As to the kind of experiment: Antibacterial activity against Mycobacterium smegmatis. Format: functional.
The subject of assay [3] is Mycobacterium intracellulare. As to the kind of experiment: Antibacterial activity against Mycobacterium intracellulare. Format: functional.
Assay [4] relates to Enterococcus faecalis. Put plainly: Antibacterial activity against t Enterococcus faecalis after 20 hrs by NCCLS-based two-fold broth dilution method. The class given is functional. In general terms: Dilution methods test growth across graded concentrations, often in twofold steps.
Assay [5] concerns Staphylococcus aureus. As to the kind of experiment: Antibacterial activity against methicillin resistant Staphylococcus aureus SR3637. Format: functional.
The test system of assay [6] is Enterococcus faecalis. Put plainly: Antibacterial activity against Enterococcus faecalis SR7914 (VRE). Format: functional.
The subject of assay [7] is Staphylococcus aureus. Put plainly: Antibacterial activity against methicillin susceptible Staphylococcus aureus ATCC 29213. Format: functional.
Assay [8] has as its system Enterococcus faecalis. As to the kind of experiment: Antibacterial activity against t Enterococcus faecalis VRE after 20 hrs by NCCLS-based two-fold broth dilution method. The class given is functional.
In assay [9] the test system is Enterococcus faecalis. Put plainly: Antibacterial activity against Enterococcus faecalis ATCC 29212. Format: functional.
The test system of assay [10] is Staphylococcus aureus. As to the kind of experiment: Antibacterial activity against methicillin susceptible Staphylococcus aureus after 20 hrs by NCCLS-based two-fold broth dilution method. Format: functional.
Assay [11] concerns Enterococcus faecium. Put plainly: Antibacterial activity against t Enterococcus faecium VRE after 20 hrs by NCCLS-based two-fold broth dilution method. Format: functional.
Assay [12] relates to Enterococcus faecium. Put plainly: Antibacterial activity against Enterococcus faecium SR7917 (VRE). Format: functional.
The subject of assay [13] is Staphylococcus aureus. Put plainly: Antibacterial activity against methicillin resistant Staphylococcus aureus after 20 hrs by NCCLS-based two-fold broth dilution method. The class given is functional.
The subject of another assay is Acinetobacter baumannii. Put plainly: Antibacterial activity against Acinetobacter baumannii ATCC 19606. Particulars: ATCC 19606 = CIP 70.34 = JCM 6841. The class given is functional.
Assay [14] concerns the target T1, Phospho-N-acetylmuramoyl-pentapeptide-transferase (Staphylococcus aureus, UniProt P0C1R8).
T1 sequence (P0C1R8 whole entry): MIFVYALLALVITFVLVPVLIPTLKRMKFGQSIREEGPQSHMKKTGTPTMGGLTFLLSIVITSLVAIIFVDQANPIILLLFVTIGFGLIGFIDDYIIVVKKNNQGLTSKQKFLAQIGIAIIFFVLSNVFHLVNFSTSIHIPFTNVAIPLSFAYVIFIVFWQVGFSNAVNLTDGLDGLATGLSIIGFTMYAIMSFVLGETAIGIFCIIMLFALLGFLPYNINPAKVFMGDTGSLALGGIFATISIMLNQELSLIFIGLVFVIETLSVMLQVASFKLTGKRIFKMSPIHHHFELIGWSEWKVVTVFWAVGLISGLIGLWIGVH
Put plainly: Inhibition of MraY in Staphylococcus aureus.

The subject of assay [15] is Pseudomonas aeruginosa. As to the kind of experiment: Antibacterial activity against Pseudomonas aeruginosa YY165. The class given is functional.
The subject of assay [16] is Enterococcus faecium. Put plainly: Antibacterial activity against Enterococcus faecium ATCC 19434. The class given is functional.
Another assay has as its system Streptococcus pneumoniae. Put plainly: Antibacterial activity against Streptococcus pneumoniae. The class given is functional.
A further assay deals with Escherichia coli. Put plainly: Antibacterial activity against Escherichia coli ATCC 25922. The class given is functional.
Assay [17] has as its system Haemophilus influenzae. As to the kind of experiment: Antibacterial activity against Haemophilus influenzae ATCC 10211. The class given is functional.
Assay [18] relates to Pseudomonas aeruginosa. As to the kind of experiment: Antibacterial activity against Pseudomonas aeruginosa PAO1 deltamexB. The class given is functional.
For assay [19], the system named is Enterococcus faecium. As to the kind of experiment: Antibacterial activity against t Enterococcus faecium after 20 hrs by NCCLS-based two-fold broth dilution method. The class given is functional.
Assay [20] relates to Haemophilus influenzae. Put plainly: Antibacterial activity against Haemophilus influenzae after 20 hrs by NCCLS-based two-fold broth dilution method. Format: functional.
For assay [21], the system named is Pseudomonas aeruginosa. Put plainly: Antibacterial activity against Pseudomonas aeruginosa after 20 hrs by NCCLS-based two-fold broth dilution method. The class given is functional.

`CCCCCCCCCCCC[C@@H](CC(=O)O[C@H]1CN(C)[C@@H]([C@H](O[C@@H]2O[C@H](CN)[C@@H](O)[C@H]2O)[C@H]2O[C@@H](n3ccc(=O)[nH]c3=O)[C@H](O)[C@@H]2O)C(=O)N(C)[C@@H]1C(=O)O)OC(=O)C[C@H](C)CC(=O)O[C@@H]1O[C@@H](C)[C@H](OC)[C@@H](OC)[C@H]1OC`: the MIC in assay [1] is 0.78 µg/mL (≈ 0.689 µM); in the assay on Mycobacterium avium it was less than 0.025 µg/mL; in [2], 0.78 to 1.56 µg/mL (≈ 0.689 to 1.38 µM); in assay [3] it was 0.78 µg/mL (≈ 0.689 µM).
`CCCCCCCCCCCCCCCC(=O)NC[C@@H]1C[C@H]2[C@@H](C(=O)N1CCCNC(=N)N)[C@H]([C@H]1O[C@@H](n3ccc(=O)[nH]c3=O)[C@H](O)[C@@H]1O)ON2CCCN`: the MIC in the assay on Enterococcus faecalis [4] turned out to be 16 µg/mL (≈ 20.6 µM); with Staphylococcus aureus [5], 8 µg/mL (≈ 10.3 µM); with Enterococcus faecalis [6] it was 16 µg/mL (≈ 20.6 µM); against Staphylococcus aureus [7], 8 µg/mL (≈ 10.3 µM); against Enterococcus faecalis [8], 16 µg/mL (≈ 20.6 µM); in the assay on Enterococcus faecalis [9], 16 µg/mL (≈ 20.6 µM). In addition, the MIC against Staphylococcus aureus [10], against Enterococcus faecium [11], in the assay on Enterococcus faecium [12] and in the assay with Staphylococcus aureus [13] was 8 µg/mL (≈ 10.3 µM) each time.
Regarding `CC(=O)N[C@@H]1CCN[C@@H]([C@@H](O[C@@H]2O[C@H](CN)[C@@H](O)[C@H]2O)[C@H]2O[C@@H](n3ccc(=O)[nH]c3=O)[C@H](O)[C@@H]2O)C1`, the MIC in the assay on Staphylococcus aureus [5], against Enterococcus faecalis [6], in the assay on Acinetobacter baumannii, against Staphylococcus aureus [7], with Enterococcus faecalis [9] and in the assay on Pseudomonas aeruginosa [15] was greater than 64 µg/mL each time. Further, the MIC against Enterococcus faecium [16], in the assay on Streptococcus pneumoniae, in the assay with Enterococcus faecium [12], against Escherichia coli, in the assay on Haemophilus influenzae [17] and with Pseudomonas aeruginosa [18] was greater than 64 µg/mL each time. This compound displayed an IC50 in [14] greater than 4.2 mM.
Consider `CCCCCCCCCCCCCCCCC[C@@H]1CN[C@@H]([C@H](O[C@@H]2O[C@H](CN)[C@@H](O)[C@H]2O)[C@H]2O[C@@H](n3ccc(=O)[nH]c3=O)[C@H](O)[C@@H]2O)C(=O)N(C)[C@@H]1C(=O)O`, for which the MIC came out at 4 µg/mL (≈ 5.1 µM) in the assay on Enterococcus faecalis [4] (read-out: MIC); 8 µg/mL (≈ 10.2 µM) against Staphylococcus aureus [5]; 16 µg/mL (≈ 20.4 µM) with Enterococcus faecalis [6]; 8 µg/mL (≈ 10.2 µM) against Staphylococcus aureus [7]; 8 µg/mL (≈ 10.2 µM) in the assay on Enterococcus faecalis [8] (read-out: MIC); 8 µg/mL (≈ 10.2 µM) in the assay with Enterococcus faecalis [9]. The MIC was determined as 4 µg/mL (≈ 5.1 µM) in the assay on Staphylococcus aureus [10] (read-out: MIC); 8 µg/mL (≈ 10.2 µM) in the assay on Enterococcus faecium [11] (read-out: MIC); 8 µg/mL (≈ 10.2 µM) in the assay with Enterococcus faecium [19]; 8 µg/mL (≈ 10.2 µM) in the assay on Enterococcus faecium [16]; 16 µg/mL (≈ 20.4 µM) in the assay on Enterococcus faecium [12]; 4 µg/mL (≈ 5.1 µM) with Staphylococcus aureus [13] (read-out: MIC).
On to `CCCCCCCCCCC[C@@H](CC(=O)O[C@H]1CN(C)[C@@H]([C@H](O[C@@H]2O[C@H](CN)[C@@H](O)[C@H]2O)[C@H]2O[C@@H](n3ccc(=O)[nH]c3=O)[C@H](O)[C@@H]2O)C(=O)N(C)[C@@H]1C(=O)O)OC(=O)C[C@H](C)CC(=O)O[C@@H]1O[C@@H](C)[C@H](OC)[C@@H](OC)[C@H]1OC`, for which the MIC in [1] was 0.78 µg/mL (≈ 0.698 µM); against Mycobacterium avium it was less than 0.025 µg/mL; in assay [2] it was 0.39 to 1.56 µg/mL (≈ 0.349 to 1.4 µM); in assay [3], 0.78 µg/mL (≈ 0.698 µM).
Consider `CC(=O)N[C@H]1CCN[C@H]([C@@H](O[C@@H]2O[C@H](CN)[C@@H](O)[C@H]2O)[C@H]2O[C@@H](n3ccc(=O)[nH]c3=O)[C@H](O)[C@@H]2O)C1`, for which the MIC in the assay with Staphylococcus aureus [5], against Enterococcus faecalis [6], in the assay with Acinetobacter baumannii, in the assay with Staphylococcus aureus [7], against Enterococcus faecalis [9] and with Pseudomonas aeruginosa [15] was greater than 64 µg/mL each time. Further, the MIC against Enterococcus faecium [16], against Streptococcus pneumoniae, against Enterococcus faecium [12], with Escherichia coli, against Haemophilus influenzae [17] and with Pseudomonas aeruginosa [18] was greater than 64 µg/mL throughout. The same compound yielded an IC50 in assay [14] greater than 4.2 mM.
As for `CCCCCCCCCCCCCC(=O)N[C@@H]1CCN[C@@H]([C@H](O[C@@H]2O[C@H](CN)[C@@H](O)[C@H]2O)[C@H]2O[C@@H](n3ccc(=O)[nH]c3=O)[C@H](O)[C@@H]2O)C1`, the MIC with Enterococcus faecalis [4] (read-out: MIC) came to 2 µg/mL (≈ 2.92 µM); with Staphylococcus aureus [5], 32 µg/mL (≈ 46.8 µM); in the assay on Enterococcus faecalis [6], 2 µg/mL (≈ 2.92 µM); with Staphylococcus aureus [7] it was 16 µg/mL (≈ 23.4 µM); in the assay on Enterococcus faecalis [8] (read-out: MIC), 2 µg/mL (≈ 2.92 µM); against Enterococcus faecalis [9] it was 2 µg/mL (≈ 2.92 µM). For the same compound, the MIC with Pseudomonas aeruginosa [15] is 32 µg/mL (≈ 46.8 µM); with Staphylococcus aureus [10] (read-out: MIC), 16 µg/mL (≈ 23.4 µM); in the assay on Enterococcus faecium [11] (read-out: MIC), 8 µg/mL (≈ 11.7 µM); against Enterococcus faecium [19] it was 16 µg/mL (≈ 23.4 µM); against Enterococcus faecium [16] it was 16 µg/mL (≈ 23.4 µM); against Haemophilus influenzae [20] it was 32 µg/mL (≈ 46.8 µM). Besides, the MIC is 32 µg/mL (≈ 46.8 µM) in the assay on Pseudomonas aeruginosa [21], 8 µg/mL (≈ 11.7 µM) with Enterococcus faecium [12], 32 µg/mL (≈ 46.8 µM) in the assay on Staphylococcus aureus [13] (read-out: MIC) and 32 µg/mL (≈ 46.8 µM) against Haemophilus influenzae [17].
